Results: PMC8294059, “Identification and Immune Assessment of T Cell Epitopes in Five Plasmodium falciparum Blood Stage Antigens to Facilitate Vaccine Candidate Selection and Optimization” (Frontiers in Immunology, 2021)
Where a SMILES comes first, the peptide text is derived from it.

Tests used:
Assay in all cases: biochemical
Type in all cases: binding
HLA-DRB1*1301 = HLA-DRB1*1301 (Homo sapiens, UniProt P01903+P01911, A100E/A169T/K41T/L162R/M171V/P40S/Q125H/Q178H/Q39Y/Q99D/R42S/S66N/T262R/W38E/Y61H); details: binding inhibition assay; NB = non-binder (no dose-dependent inhibition); read-out: DRB1*1301 IC50
Experimental: (§1) The binding assay conducted by EpiVax yields an indirect measure of peptide-MHC affinity as it utilizes a competition assay format per the methodology described in Steere et al. ([35]). […] Post incubation, the mixtures are moved to a 96-well plate coated with anti-HLA-DR antibody to capture HLA-peptide complexes. Time-resolved fluorescence measurement of the bound labeled reference peptide complex present in each mixture is detected with a europium-linked probe via fluorescent spectrophotometry using a SpectraMax M5 system. HLA binding affinity of each test peptide is expressed as the percent inhibition of reference peptide binding. Percent inhibition values (across the test peptide titration range) are used to calculate the half maximal inhibitory concentration (IC50) of each test peptide. For these studies, test peptides were assessed using a range of final concentrations from 100,000 nM to 100 nM. The panel of commercially-available HLA-DRB1 allele monomers used includes: *0101, *0301, *0401, *0701, *0801, *1101, *1301 and *1501. EpiVax established HLA-DRB1 binding affinity cutoffs were used to rank the IC50 values.
(§2) In vitro HLA binding assays (step 2 of workflow shown in Figure 1 ) were carried out with the synthesized peptides to verify the EpiMatrix outputs and provide a measure of accuracy for comparing in silico-predicted HLA-DRB1 allele binding to laboratory assessments of HLA-DRB1 allele binding. These assessments were conducted using a competition assay format whereby IC50 values were calculated based on the ability of the test peptide to compete with a labeled, high binding affinity reference peptide for HLA-DRB1 molecule binding. Sequences for the high affinity reference peptides and the negative control peptide, known not to bind any of the HLA-DRB1 molecules, are provided in Table S18 .

HLA-DRB1*1501 = target: T1, HLA-DRB1*1501 (Homo sapiens, UniProt P01903+P01911); details: binding inhibition assay; NB = non-binder (no dose-dependent inhibition); read-out: DRB1*1501 IC50
T1 construct: purchased
Experimental: as §1, §2

HLA-DRB1*0101 = target: T2, HLA-DRB1*0101 (Homo sapiens, UniProt P01903+P01911, A100R/D57E/F55L/F60I/F76Y/I96L/L162R/M171V/P40L/Q125E/R42F/V115G/Y59C); details: binding inhibition assay; NB = non-binder (no dose-dependent inhibition); read-out: DRB1*0101 IC50
T2 construct: purchased
Experimental: as §1, §2

HLA-DRB1*1101 = HLA-DRB1*1101 (Homo sapiens, UniProt P01903+P01911, A100R/A169T/A87E/I96F/K41T/L162R/M171V/P40S/Q125H/Q178H/Q39Y/Q99D/R42S/S66Y/T262R/V115G/W38E); details: binding inhibition assay; NB = non-binder (no dose-dependent inhibition); read-out: DRB1*1101 IC50
Sequence of HLA-DRB1*1101 (P01903 26-254 limits assumed, other chains not shown): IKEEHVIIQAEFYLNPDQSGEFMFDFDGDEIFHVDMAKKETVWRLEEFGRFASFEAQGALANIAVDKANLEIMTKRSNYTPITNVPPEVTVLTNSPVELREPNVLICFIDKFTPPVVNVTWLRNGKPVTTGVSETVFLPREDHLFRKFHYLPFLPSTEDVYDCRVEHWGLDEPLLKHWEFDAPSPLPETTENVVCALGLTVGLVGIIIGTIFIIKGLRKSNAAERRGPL
Experimental: as §1, §2

HLA-DRB1*0401 = target: T3, HLA-DRB1*0401 (Homo sapiens, UniProt P01903+P01911, A100K/A169T/F76Y/I96L/K127E/L162R/M171V/N62H/P40V/Q125Y/R42H/S133A/S149N/S66Y/V115G/V209L/W38E); details: binding inhibition assay; NB = non-binder (no dose-dependent inhibition); read-out: DRB1*0401 IC50
T3 construct: purchased
Experimental: as §1, §2

HLA-DRB1*0701 = HLA-DRB1*0701 (Homo sapiens, UniProt P01903+P01911, A100R/A102G/A103Q/D57E/D86V/E43K/F76Y/K127E/L162R/M171V/P40G/Q125H/Q99D/R33Q/R42Y/R54Q/S133A/S66F/T210M/V115G/Y107V/Y59L/Y89S); details: binding inhibition assay; NB = non-binder (no dose-dependent inhibition); read-out: DRB1*0701 IC50
Experimental: as §1, §2

HLA-DRB1*0801 = HLA-DRB1*0801 (Homo sapiens, UniProt P01903+P01911, A100R/A103L/A169T/D86S/F76Y/H45Y/I96F/K41T/L162R/M171V/P40S/Q125H/Q178H/Q39Y/Q99D/R218S/R42G/S66Y/V115G/W38E); details: binding inhibition assay; NB = non-binder (no dose-dependent inhibition); read-out: DRB1*0801 IC50
Experimental: as §1, §2

Compound	IC50 (HLA-DRB1*1301)	IC50 (HLA-DRB1*1501)	IC50 (HLA-DRB1*0101)	IC50 (HLA-DRB1*1101)	IC50 (HLA-DRB1*0401)	IC50 (HLA-DRB1*0701)	IC50 (HLA-DRB1*0801)
CSCC[C@H](N)C(=O)N[C@@H](CCCNC(=N)N)C(=O)N[C@@H](CCCCN)C(=O)N[C@@H](CC(C)C)C(=O)N[C@@H](Cc1ccc(O)cc1)C(=O)N[C@@H](CS)C(=O)N[C@H](C(=O)N[C@@H](CC(C)C)C(=O)N[C@@H](CC(C)C)C(=O)N[C@@H](CC(C)C)C(=O)N[C@@H](CO)C(=O)N[C@@H](C)C(=O)N[C@@H](Cc1ccccc1)C(=O)N[C@@H](CCC(=O)O)C(=O)N[C@@H](Cc1ccccc1)C(=O)N[C@H](C(=O)N[C@@H](Cc1ccc(O)cc1)C(N)=O)[C@@H](C)O)C(C)C [AMA1_001] (H-MRKLYCVLLLSAFEFTY-NH2)	1790 nM	751 nM	394 nM	320 nM	1470 nM	206 nM	17300 nM
CC[C@H](C)[C@H](NC(=O)[C@H](CCSC)NC(=O)[C@H](Cc1ccc(O)cc1)NC(=O)[C@@H](NC(=O)[C@H](Cc1ccccc1)NC(=O)[C@H](CCC(=O)O)NC(=O)[C@H](Cc1ccccc1)NC(=O)[C@H](C)N)[C@@H](C)O)C(=O)N[C@@H](CC(N)=O)C(=O)N[C@@H](Cc1ccccc1)C(=O)NCC(=O)N[C@@H](CCCNC(=N)N)C(=O)NCC(=O)N[C@@H](CCC(N)=O)C(=O)N[C@@H](CC(N)=O)C(=O)N[C@@H](Cc1ccc(O)cc1)C(=O)N[C@@H](Cc1c[nH]c2ccccc12)C(=O)N[C@@H](CCC(=O)O)C(N)=O [AMA1_002] (H-AFEFTYMINFGRGQNYWE-NH2)	723 nM	76 nM	117 nM	236 nM	45 nM	113 nM	239 nM
CC(=O)N[C@@H](Cc1ccccc1)C(=O)N[C@@H](CCC(N)=O)C(=O)N[C@@H](CC(N)=O)C(=O)N[C@@H](Cc1ccc(O)cc1)C(=O)N[C@H](C(=O)N[C@@H](Cc1ccc(O)cc1)C(=O)N[C@@H](CC(C)C)C(=O)N[C@@H](CO)C(=O)N[C@@H](CCCCN)C(=O)N[C@@H](CC(N)=O)C(=O)N[C@H](C(=O)N[C@H](C(=O)N[C@@H](CC(=O)O)C(=O)N[C@@H](CC(N)=O)C(=O)N[C@@H](Cc1c[nH]c2ccccc12)C(=O)N[C@@H](CCC(=O)O)C(N)=O)C(C)C)C(C)C)[C@@H](C)O [AMA1_004] (Ac-FQNYTYLSKNVVDNWE-NH2)	70000 nM	248 nM	16 nM	567 nM	9690 nM	9480 nM	10 nM
CC[C@H](C)[C@H](NC(=O)[C@@H](NC(=O)[C@H](C)NC(=O)[C@H](CC(C)C)NC(C)=O)[C@@H](C)O)C(=O)N[C@@H](CC(C)C)C(=O)N[C@@H](CCSC)C(=O)N[C@H](C(=O)N[C@@H](Cc1ccc(O)cc1)C(=O)N[C@@H](CC(C)C)C(=O)N[C@@H](Cc1ccc(O)cc1)C(=O)N[C@@H](CCCCN)C(=O)N[C@@H](CCCNC(=N)N)C(=O)N[C@@H](CCCCN)C(=O)NCC(=O)N[C@@H](CC(N)=O)C(=O)N[C@@H](C)C(=O)N[C@@H](CCC(=O)O)C(=O)N[C@@H](CCCCN)C(=O)N[C@@H](Cc1ccc(O)cc1)C(=O)N[C@@H](CC(=O)O)C(=O)N[C@@H](CCCCN)C(N)=O)C(C)C [AMA1_009] (Ac-LATILMVYLYKRKGNAEKYDK-NH2)	4400 nM	2440 nM	10000 nM	165 nM	11100 nM	3400 nM	7980 nM
CC[C@H](C)[C@H](NC(=O)[C@H](Cc1ccccc1)NC(=O)[C@H](CC(N)=O)NC(=O)[C@@H](NC(=O)[C@H](CC(N)=O)NC(=O)[C@H](CCCCN)NC(=O)[C@@H](NC(=O)[C@H](CC(N)=O)NC(=O)[C@H](CC(N)=O)NC(=O)[C@@H](NC(=O)[C@H](CC(N)=O)NC(=O)[C@H](CC(=O)O)NC(=O)CNC(=O)[C@@H](NC(=O)[C@H](Cc1ccc(O)cc1)NC(=O)[C@H](Cc1ccccc1)NC(=O)[C@@H](N)Cc1c[nH]cn1)C(C)C)[C@@H](C)CC)C(C)C)C(C)C)C(=O)N[C@@H](CCC(=O)O)C(N)=O [CYRPA_005] (H-HFYVGDNINNVKNVNFIE-NH2)	633 nM	122 nM	182 nM	293 nM	78 nM	137 nM	11800 nM
CC[C@H](C)[C@H](NC(=O)[C@H](CCCCN)NC(=O)CNC(=O)[C@@H](NC(=O)[C@H](CC(C)C)NC(=O)[C@H](CCCCN)NC(=O)[C@H](CCCNC(=N)N)NC(=O)[C@H](CC(N)=O)NC(=O)[C@H](CO)NC(=O)[C@H](CC(C)C)NC(=O)[C@H](CC(=O)O)NC(=O)[C@H](CC(N)=O)NC(=O)[C@H](Cc1c[nH]c2ccccc12)NC(=O)[C@H](Cc1ccc(O)cc1)NC(=O)[C@H](CC(=O)O)NC(=O)[C@@H](NC(=O)CNC(C)=O)[C@@H](C)O)C(C)C)C(=O)N[C@@H](CC(N)=O)C(=O)N[C@H](C(=O)N[C@@H](CC(N)=O)C(N)=O)[C@@H](C)O [EBA175_011] (Ac-GTDYWNDLSNRKLVGKINTN-NH2)	> 100000 nM	54200 nM	462 nM	28600 nM	52700 nM	–	> 100000 nM
CC[C@H](C)[C@H](NC(=O)[C@H](CC(=O)O)NC(=O)[C@@H]1CCCN1C(=O)[C@H](CC(C)C)NC(=O)[C@@H](NC(=O)[C@H](CO)NC(=O)[C@H](CO)NC(=O)[C@H](CC(N)=O)NC(=O)[C@H](Cc1ccc(O)cc1)NC(=O)[C@H](CC(C)C)NC(=O)[C@H](CO)NC(=O)[C@@H]1CCCN1C(=O)[C@@H](NC(=O)[C@H](CC(N)=O)NC(=O)[C@H](CO)NC(=O)[C@H](Cc1c[nH]cn1)NC(=O)[C@H](CC(C)C)NC(=O)[C@H](Cc1c[nH]cn1)NC(=O)[C@H](CO)NC(=O)[C@H](CC(N)=O)NC(=O)[C@H](CCCCN)NC(C)=O)[C@@H](C)CC)[C@@H](C)CC)C(=O)N[C@@H](CC(N)=O)C(=O)N[C@@H](CCCCN)C(=O)N[C@@H](CO)C(N)=O [RIPR_008] (Ac-KNSHLHSNIPSLYNSSILPDINKS-NH2)	–	700 nM	400 nM	92200 nM	48500 nM	65700 nM	9430 nM
CC[C@H](C)[C@H](NC(=O)[C@H](CC(C)C)NC(=O)[C@H](Cc1c[nH]cn1)NC(=O)[C@H](Cc1ccccc1)NC(=O)[C@H](CCCCN)NC(=O)[C@H](CO)NC(=O)[C@H](CCCCN)NC(C)=O)C(=O)N[C@@H](CO)C(=O)N[C@@H](CCCNC(=N)N)C(=O)N[C@@H](CC(N)=O)C(=O)N[C@@H](CO)C(=O)N[C@@H](CCCNC(=N)N)C(=O)N[C@H](C(=O)N[C@@H](CC(N)=O)C(=O)N[C@@H](CCC(N)=O)C(=O)N[C@@H](Cc1ccc(O)cc1)C(N)=O)[C@@H](C)O [RIPR_009] (Ac-KSKFHLISRNSRTNQY-NH2)	64 nM	15800 nM	441 nM	75 nM	59100 nM	–	63400 nM
